Laboratory results published in patent publication US20120088753A1, “PYRROLOPYRIMIDINES AND USED AS KINASE INHIBITORS” (MEDICAL RESEARCH COUNCIL TECHNOLOGY, priority 2009, published 2012).

The molecules below were run against T1, TBK1 (Homo sapiens, UniProt Q9UHD2) (assay: TBK1 protein kinase assay ([γ-33P]ATP filter-plate, IC50 from 10 concentrations)). Details: 50 μM ATP, peptide substrate 300 μM, 30 min, 21° C.; read-out: Potency score (TBK1 IC50).
T1 construct: All protein kinases were of human origin and encoded full length proteins, unless indicated otherwise; His6; made in house; host or cells: insect Sf21 cells
T1 sequence (Q9UHD2 1-729): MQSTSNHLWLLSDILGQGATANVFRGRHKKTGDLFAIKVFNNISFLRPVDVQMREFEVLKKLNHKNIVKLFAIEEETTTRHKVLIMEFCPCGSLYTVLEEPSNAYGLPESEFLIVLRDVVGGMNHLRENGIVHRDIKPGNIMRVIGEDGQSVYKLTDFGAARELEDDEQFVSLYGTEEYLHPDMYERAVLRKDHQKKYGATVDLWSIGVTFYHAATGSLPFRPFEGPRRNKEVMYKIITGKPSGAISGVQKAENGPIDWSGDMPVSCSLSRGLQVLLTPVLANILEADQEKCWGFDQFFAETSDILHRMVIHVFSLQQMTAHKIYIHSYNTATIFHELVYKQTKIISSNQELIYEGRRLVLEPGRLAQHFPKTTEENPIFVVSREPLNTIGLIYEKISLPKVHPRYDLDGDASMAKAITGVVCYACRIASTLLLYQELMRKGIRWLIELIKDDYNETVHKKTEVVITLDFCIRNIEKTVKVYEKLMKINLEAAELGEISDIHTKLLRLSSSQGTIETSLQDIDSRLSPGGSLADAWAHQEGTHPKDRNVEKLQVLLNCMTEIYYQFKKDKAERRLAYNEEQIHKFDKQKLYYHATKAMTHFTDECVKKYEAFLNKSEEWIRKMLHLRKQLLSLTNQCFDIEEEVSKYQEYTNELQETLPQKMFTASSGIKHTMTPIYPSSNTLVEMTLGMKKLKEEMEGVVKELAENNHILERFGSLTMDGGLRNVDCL
Format: biochemical
From the text: All protein kinases were of human origin and encoded full length proteins, unless indicated otherwise. They were either expressed as glutathione S-transferase (GST) fusion proteins in Escherichia Coli or as hexahistidine (His6)-tagged proteins in insect Sf21 cells. GST fusion proteins were purified by affinity chromatography on glutathione-Sepharose, and His6-tagged proteins on nickel/nitriloacetate-agarose. The procedures for expressing some of the protein kinases used herein have been detailed previously.^8,9 The following sections outline the DNA vectors synthesised and the procedures used to express and purifying protein kinases that have not been reported previously.
The following kinases were expressed in Sf21 cells: Aurora B and Aurora C, extra-cellular signal-regulated kinase 8 (ERK8), microtubule affinity regulating kinase 3 (MARK3), protein kinase Bα[118-480][S473D], protein kinase Bβ (PKBβ[120-481][S474D], 3-phosphoinositide-dependent protein kinase-1 [52-556] (PDK1[52-556], IKKε, TBK1,
All assays (25.5 μl) were carried out at room temperature (21° C.) and were linear with respect to time and enzyme concentration under the conditions used. Assays were performed for 30 min using Multidrop Micro reagent dispensers (Thermo Electron Corporation, Waltham, Mass. 02454, USA) in a 96-well format. The concentration of magnesium acetate in the assays was 10 mM and the [γ-33P] ATP (800 cpm/pmol) was used at 5, 20 or 50 μM as indicated, in order to be at or below the Km for ATP for each enzyme. Protein kinases assayed at 5 μM ATP were: ERK1, ERK8, PKBα, MARK3, Aurora C. Protein kinases assayed at 20 μM ATP were: JNK1, PDK1, CHK1, CHK2, CDK2 and Aurora B. Protein kinases assayed at 50 μM ATP were: MNK2, IKKepsilon and TBK1.
The assays were initiated with MgATP, stopped by addition of 5 μl of 0.5 M orthophosphoric acid and spotted on to P81 filterplates using a unifilter harvester (PerkinElmer, Boston, Mass. 02118, USA). The IC50 values of inhibitors were determined after carrying out assays at 10 different concentrations of each compound.
ERK1 and ERK8 were both assayed against myelin basic protein (MBP, 0.33 mg/ml). MARK3 was assayed against the peptide […] (300 μM), MNK2 against the eIF4E protein (0.5 mg/ml). PKBβ was assayed against the peptide GRPRTSSFAEGKK (30 μM). TBK1 were assayed against ([…]) (300 μM). The substrates used for other protein kinases were described previously.^8,9
Unless stated otherwise, enzymes were diluted in 50 mM Tris/HCl pH 7.5, 0.1 mM EGTA, 1 mg/ml BSA, 0.1% (v/v) 2-mercaptoethanol and assayed in 50 mM Tris/HCl pH 7.5, 0.1 mM EGTA, 0.1% (v/v) 2-mercaptoethanol.

Row | IC50 [nM] | Structure (SMILES)
1 | < 100 | O=C(NCCCn1ccc2cnc(Nc3cccnc3)nc21)C1CCC1 [Example 43, Cyclobutanecarboxylic acid {3-[2-(pyridin-3-ylamino)-pyrrolo[2,3-d]pyrimidin-7-yl]-propyl}-amide]
2 | < 100 | Cn1ncc2cc(Nc3ncc4ccn(CCCNC(=O)C5CCC5)c4n3)cnc21 [Example 44, Cyclobutanecarboxylic acid {3-[2-(1-methyl-1H-pyrazolo[3,4-b]pyridin-5-ylamino)-pyrrolo[2,3-d]pyrimidin-7-yl]-propyl}-amide]
3 | < 100 | O=C(NCCCn1ccc2cnc(Nc3ccc4nccn4c3)nc21)C1CCC1 [Example 45, Cyclobutanecarboxylic acid {3-[2-(imidazo[1,2-a]pyridin-6-ylamino)-pyrrolo[2,3-d]pyrimidin-7-yl]-propyl}amide]
4 | < 100 | O=C(NCCCn1ccc2cnc(Nc3ccc4nccnc4c3)nc21)C1CCC1 [Example 46, Cyclobutanecarboxylic acid {3-[2-(quinoxalin-6-ylamino)-pyrrolo[2,3-d]pyrimidin-7-yl]-propyl}-amide]
5 | < 100 | CCn1cc(Nc2ncc3ccn(CCCNC(=O)C4CCC4)c3n2)cn1 [Example 47, Cyclobutanecarboxylic acid {3-[2-(1-ethyl-1H-pyrazol-4-ylamino)-pyrrolo[2,3-d]pyrimidin-7-yl]-propyl}-amide]
6 | < 100 | O=C(NCCCn1ccc2cnc(Nc3cccc(N4CCOCC4)c3)nc21)C1CCC1 [Example 48, Cyclobutanecarboxylic acid {3-[2-(3-morpholin-4-yl-phenylamino)-pyrrolo[2,3-d]pyrimidin-7-yl]-propyl}-amide]
7 | < 100 | O=C(NCCCn1ccc2cnc(Nc3cccc(CN4CCCCC4)c3)nc21)C1CCC1 [Example 49, Cyclobutanecarboxylic acid {3-[2-(3-piperidin-1-ylmethyl-phenylamino)-pyrrolo[2,3-d]pyrimidin-7-yl]-propyl}-amide]
8 | < 100 | O=C(NCCCn1ccc2cnc(Nc3ccc4ncccc4c3)nc21)C1CCC1 [Example 50, Cyclobutanecarboxylic acid {3-[2-(quinolin-6-ylamino)-pyrrolo[2,3-d]pyrimidin-7-yl]-propyl}-amide]
9 | < 100 | CC(C)N1CCC(n2cc(Nc3ncc4ccn(CCCNC(=O)C5CCC5)c4n3)cn2)CC1 [Example 51, Cyclobutanecarboxylic acid (3-{2-[1-(1-isopropyl-piperidin-4-yl)-1H-pyrazol-4-ylamino]-pyrrolo[2,3-d]pyrimidin-7-yl}-propyl)-amide]

Continued, molecule first:

Row | Structure (SMILES) | IC50 [nM]
10 | CCCC(=O)NCCCn1ccc2cnc(Nc3ccc(N4CCOCC4)nc3)nc21 [Example 26, N-{3-[2-(6-Morpholin-4-yl-pyridin-3-ylamino)-pyrrolo[2,3-d]pyrimidin-7-yl]-propyl}-butyramide] | 100 to 1000
11 | O=C(NCCCn1ccc2cnc(Nc3cccc(F)c3)nc21)C1CCC1 [Example 27, Cyclobutanecarboxylic acid {3-[2-(3-fluoro-phenylamino)-pyrrolo[2,3-d]pyrimidin-7-yl]-propyl}-amide] | < 100
12 | CC(=O)Nc1cccc(Nc2ncc3ccn(CCCNC(=O)C4CCC4)c3n2)c1 [Example 28, Cyclobutanecarboxylic acid {3-[2-(3-acetylamino-phenylamino)-pyrrolo[2,3-d]pyrimidin-7-yl]-propyl}-amide] | < 100
13 | O=C(NCCCn1ccc2cnc(Nc3cccc(N4CCCC4=O)c3)nc21)C1CCC1 [Example 29, Cyclobutanecarboxylic acid (3-{2-[3-(2-oxo-pyrrolidin-1-yl)-phenylamino]-pyrrolo[2,3-d]pyrimidin-7-yl}-propyl)-amide] | 100 to 1000
14 | O=C(NCCCn1ccc2cnc(Nc3ccc(N4CCOCC4)nc3)nc21)C1CCC1 [Example 30, Cyclobutanecarboxylic acid {3-[2-(6-morpholin-4-yl-pyridin-3-ylamino)-pyrrolo[2,3-d]pyrimidin-7-yl]propyl}-amide] | < 100
15 | CN1CCN(c2ccc(Nc3ncc4ccn(CCCNC(=O)C5CCC5)c4n3)cn2)CC1 [Example 31, Cyclobutanecarboxylic acid (3-{2-[6-(4-methyl-piperazin-1-yl)-pyridin-3-ylamino]-pyrrolo[2,3-d]pyrimidin-7-yl}-propyl)-amide] | 100 to 1000
16 | O=C(NCCCn1ccc2cnc(Nc3cccc(F)c3)nc21)C1CCCC1 [Example 32, Cyclopentanecarboxylic acid {3-[2-(3-fluoro-phenylamino)-pyrrolo[2,3-d]pyrimidin-7-yl]-propyl}-amide] | 100 to 1000
17 | CC(=O)Nc1cccc(Nc2ncc3ccn(CCCNC(=O)C4CCCC4)c3n2)c1 [Example 33, Cyclopentanecarboxylic acid {3-[2-(3-acetylamino-phenylamino)-pyrrolo[2,3-d]pyrimidin-7-yl]-propyl}-amide] | < 100
18 | O=C(NCCCn1cc(Cl)c2cnc(Nc3cccc(F)c3)nc21)C1CCC1 [Example 34, Cyclobutanecarboxylic acid {3-[5-chloro-2-(3-fluoro-phenylamino)-pyrrolo[2,3-d]pyrimidin-7-yl]-propyl}-amide] | < 100
19 | O=C(NCCCn1cc(Cl)c2cnc(Nc3ccc(N4CCOCC4)nc3)nc21)C1CCC1 [Example 35, Cyclobutanecarboxylic acid {3-[5-chloro-2-(6-morpholin-4-yl-pyridin-3-ylamino)-pyrrolo[2,3-d]pyrimidin-7-yl]-propyl}-amide] | < 100
20 | O=C(NCCCn1cc(Br)c2cnc(Nc3cccc(F)c3)nc21)C1CCC1 [Example 36, Cyclobutanecarboxylic acid {3-[5-bromo-2-(3-fluoro-phenylamino)-pyrrolo[2,3-d]pyrimidin-7-yl]-propyl}-amide] | < 100
21 | N#Cc1cn(CCCNC(=O)C2CCC2)c2nc(Nc3cccc(F)c3)ncc12 [Example 37, Cyclobutanecarboxylic acid {3-[5-cyano-2-(3-fluoro-phenylamino)-pyrrolo[2,3-d]pyrimidin-7-yl]-propyl}-amide] | 100 to 1000
22 | O=C(NCCCn1cc(Cl)c2cnc(Nc3cccc(F)c3)nc21)c1cccs1 [Example 38, Thiophene-2-carboxylic acid {3-[5-chloro-2-(3-fluoro-phenylamino)-pyrrolo[2,3-d]pyrimidin-7-yl]-propyl}-amide] | 100 to 1000
23 | O=C(NCCCn1ccc2cnc(Nc3ccc(N4CCCC4=O)cc3)nc21)C1CCC1 [Example 39, Cyclobutanecarboxylic acid (3-{2-[4-(2-oxo-pyrrolidin-1-yl)-phenylamino]-pyrrolo[2,3-d]pyrimidin-7-yl}-propyl)-amide] | < 100
24 | O=C(NCCCn1ccc2cnc(Nc3ccc4[nH]ncc4c3)nc21)C1CCC1 [Example 40, Cyclobutanecarboxylic acid {3-[2-(1H-indazol-5-ylamino)-pyrrolo[2,3-d]pyrimidin-7-yl]-propyl}-amide] | < 100
25 | O=C(NCCCn1ccc2cnc(Nc3cccc(-n4cncn4)c3)nc21)C1CCC1 [Example 41, Cyclobutanecarboxylic acid {3-[2-(3-1,2,4-triazol-1-yl-phenylamino)-pyrrolo[2,3-d]pyrimidin-7-yl]-propyl}-amide] | < 100
